# Counter-ions that a name gives are not always drawn. Like-named read-outs stand apart in the source and are kept apart here. Marks after values point to notes of the source that are not given here.
# Legend:
# [1] = Static equilibrium solubility of HCQS in supercritical carbon dioxide (UV-vis spectrophotometer); format: physicochemical; conditions: for solubility thermodynamic at 1 h: thermodynamic from solid, read-out: Equilibrium solubility, S
# Procedure: SCF-solubility of the drugs was experimentally measured via two broad classes of saturated solution-based methods, where solubility measurement can be done either (1) statically or (2) dynamically. […] The solubilities were measured with the help of an equilibrium cell. Thermodynamically, the method employed may be regarded as an isobaric-isothermal method. All the measurements are taken by keeping system temperatures and pressures at the desired value with high precision (i.e., ± 0.1 K and ± 0.1 MPa). Complete details about the equipment and measurement procedures are presented elsewhere[15]–[35]. However, the description of the equipment and the methodology employed in establishing solubility data are briefly presented in this section. The scCO2 is pumped to the equilibrium cell and drug sample and scCO2 are thoroughly mixed and allowed to attain equilibrium. […] To ensure equilibrium solubility, the experiments are performed with fresh samples at various time intervals. […] For each sampling a 600 µL volume saturated sample is collected via a collection valve in a deionized water preloaded sample vial. After discharging of each sample, the sampling valve was cleaned with 1 ml of deionized water. Drug sample solubility is estimated with the following formula:1 y2=ndrug/ndrug+nCO2 where y2 is solubility of the drug in scCO2, ndrug and nCO2 are number of moles of the drug and CO2 in the sampling loop, respectively.
# The following formulas are used in data conversion2 ndrug=Cs·Vs/Ms 3 nCO2=V1ρ1/MCO2 where Cs is concentration of the drug in g/L. V1 = 600 × 10^–6 L and Vs = 5 × 10^–3 L are sampling loop and vial volumes, respectively. Ms and MCO2 are drug and CO2 molecular weights, respectively. ρ1 is density of scCO2 at each experimental condition, as presented in Table 2.
# Solubility is also described as4 S=CSVs/V1
# The solubility and mole fraction relation is described as5 S=ρMs/MCO2y2/1-y2
# [2] = Total, sublimation and solvation enthalpies of HCQS in scCO2 from Chrastil, reformulated Chrastil and Bartle et al. model constants; format: physicochemical
# Source text: In the year 1981, Josef Chrastil presented a model for the solubility of solids/liquids in SCF. The main basis of the model is a solvate complex formulation based on a simple reaction. According to Chrastil, solubility is explained by c2=c2(κ,ρ1,T) , where κ is association number, ρ1 is solvent density (scCO2) and T is temperature. Chrastil proposed Eq. (19)19 c2=ρ1κexpA1+B1/T
# In the year 2009, Garlpati and Madras has reformulated Chrastil's model and it is expressed by Eq. (21), where solubility is explained by y2=y2κ^′,ρ1,T , in which κ^′ is association number, ρ1 is solvent density (scCO2) and T is temperature.21 y2=RTρ1/MScFf^∙^κ^′-1expA2+B2/T in Eq. (21), R denotes universal constant of ideal gas, MScF is molecular weight of solvent, f^∗ is reference pressure and A2 and B2 are the Reformulated model constants.
# The solute sublimation enthalpy is calculated with Bartle et al., model and it is stated as23 lny2P/Pref=A4+B4/T+C4ρ1-ρref where A4 to C4 are the model constants. Using the constant B4 , sublimation enthalpy is calculated (i.e., ΔsubH=-B4R ).
# Solid–liquid model requires enthalpy of fusion, molar volume and melting point of the solute. Enthalpy of fusion is estimated with the help Jain et al.[77], and molar volume of the solute is estimated with the help Immirzi and Perini method. The calculated molar enthalpy and molar volumes are 65,208 J mol^−1 and 3.306 × 10^–4 m^3 mol^−1, respectively. The melting temperature is obtained from the material safety data sheet as 240 °C. From Chrastil's model constant ( B1 ), total enthalpy is calculated ( B1 × R). From Bartle’s model constant ( B4 ), sublimation enthalpy is calculated ( ΔsubH=-B4R ). From the magnitude difference between total and sublimation enthalpies, solvation enthalpy is calculated. Similarly, from reformulated Chrastil's model constant ( B2 ) and Bartle’s model constant ( B4 ), combination solvation enthalpy is calculated. […] This may be due to a smaller number of parameters in the models; on the other hand, the correlating ability of the solvate complex models is quite good. […]
smiles,measurement,setting,value
"CCN(CCO)CCCC(C)Nc1ccnc2cc(Cl)ccc12 (centres unmarked) [HCQS, Hydroxychloroquine sulfate]",rise in solubility when temperature is raised from 308 to 338 K,[1]; 12 MPa,4.6 folds
same,rise in solubility when temperature is raised from 308 to 338 K,[1]; 27 MPa,3.8 folds
same,solubility thermodynamic at 1 h,"[1]; supercritical carbon dioxide (scCO2) in an equilibrium cell, scCO2, 308 K, 210 bar",93.9 µg/mL
same,solubility thermodynamic at 1 h,"[1]; supercritical carbon dioxide (scCO2) in an equilibrium cell, scCO2, 308 K, 270 bar",132 µg/mL
same,solubility thermodynamic at 1 h,"[1]; supercritical carbon dioxide (scCO2) in an equilibrium cell, scCO2, 318 K, 120 bar",40.9 µg/mL
same,solubility thermodynamic at 1 h,"[1]; scCO2, 308 K, 150 bar",35 µg/mL
same,solubility thermodynamic at 1 h,"[1]; scCO2, 308 K, 180 bar",49.7 µg/mL
same,solubility thermodynamic at 1 h,"[1]; scCO2, 318 K, 150 bar",80.6 µg/mL
same,solubility thermodynamic at 1 h,"[1]; scCO2, 318 K, 210 bar",165 µg/mL
same,solubility thermodynamic at 1 h,"[1]; scCO2, 318 K, 240 bar",210 µg/mL
same,solubility thermodynamic at 1 h,"[1]; scCO2, 328 K, 120 bar",49.4 µg/mL
same,solubility thermodynamic at 1 h,"[1]; scCO2, 328 K, 150 bar",103 µg/mL
same,solubility thermodynamic at 1 h,"[1]; scCO2, 328 K, 210 bar",207 µg/mL
same,solubility thermodynamic at 1 h,"[1]; scCO2, 328 K, 270 bar",356 µg/mL
same,solubility thermodynamic at 1 h,"[1]; scCO2, 338 K, 120 bar",53.4 µg/mL
same,solubility thermodynamic at 1 h,"[1]; scCO2, 338 K, 150 bar",126 µg/mL
same,solubility thermodynamic at 1 h,"[1]; scCO2, 338 K, 180 bar",182 µg/mL
same,solubility thermodynamic at 1 h,"[1]; scCO2, 338 K, 210 bar",231 µg/mL
same,solubility thermodynamic at 1 h,"[1]; scCO2, 338 K, 240 bar",291 µg/mL
same,solubility thermodynamic at 1 h,"[1]; scCO2, 338 K, 270 bar",426 µg/mL
same,Enthalpy of sublimation ΔHsub,"[2]; Bartle et al., model constant B4",~89.1^c (approximate value) kJ/mol
same,"Total Enthalpy, ΔHtotal",[2]; Chrastil's model constant B1,69.80^a kJ/mol
same,"Total Enthalpy, ΔHtotal",[2]; Modified Chrastil's model constant B2,62.00^b kJ/mol
